Measured values taken from ChEMBL document CHEMBL6182878, “Discovery of novel transforming growth factor β type 1 receptor inhibitors through structure-based virtual screening, preliminary structure-activity relationship study, and biological evaluation in hepatocellular carcinoma” (Bioorg Med Chem, 2025).
The source made the active and inactive calls. The rule behind the calls is not given here.

Experiments:
Hep 3B2 [1] = test: Growth inhibition of human Hep3B cells incubated for 72 hrs by CCK-8 assay; format: functional
[2] = Inhibition of TGFbeta-dependent SMAD2/3 phosphorylation in mouse NIH3T3 cells incubated for 24 hrs by luciferase reporter assay; settings: NIH3T3, 24 h
Hep 3B2 [3] = test: Synergistic antiproliferative activity against human Hep3B cells at 1.56 to 3.12 uM in presence of sorafenib; format: functional, cell-based; settings: dose 1.56-3.12 µM
[4] = target: Mothers against decapentaplegic homolog 2 (Homo sapiens) (UniProt Q15796); test: Inhibition of TGFbeta-induced SMAD2 phosphorylation at S465/467 residues in serum-starved human Hep3B cells preincubated with compound for 30 mins followed by TGFbeta addition and measured after 30 mins by Western blotting analysis; format: cell-based; settings: dose 1-10 µM, time 60.0 min
Hep 3B2 [5] = test: Induction of apoptosis in human Hep3B cells at 10 uM incubated for 48 to 72 hrs in presence of sorafenib by Annexin V-FITC/PI staining based flow cytometry; format: functional, cell-based; settings: time 48-72 hrs
Hep 3B2 [6] = test: Induction of apoptosis in human Hep3B cells at 10 uM incubated for 48 hrs by Annexin V-FITC/PI staining based flow cytometry; format: functional, cell-based
Hep 3B2 [7] = test: Induction of apoptosis in human Hep3B cells at 5 uM incubated for 72 hrs by Annexin V-FITC/PI staining based flow cytometry; format: functional, cell-based

Chain of Mothers against decapentaplegic homolog 2 (Homo sapiens) (Q15796 whole entry): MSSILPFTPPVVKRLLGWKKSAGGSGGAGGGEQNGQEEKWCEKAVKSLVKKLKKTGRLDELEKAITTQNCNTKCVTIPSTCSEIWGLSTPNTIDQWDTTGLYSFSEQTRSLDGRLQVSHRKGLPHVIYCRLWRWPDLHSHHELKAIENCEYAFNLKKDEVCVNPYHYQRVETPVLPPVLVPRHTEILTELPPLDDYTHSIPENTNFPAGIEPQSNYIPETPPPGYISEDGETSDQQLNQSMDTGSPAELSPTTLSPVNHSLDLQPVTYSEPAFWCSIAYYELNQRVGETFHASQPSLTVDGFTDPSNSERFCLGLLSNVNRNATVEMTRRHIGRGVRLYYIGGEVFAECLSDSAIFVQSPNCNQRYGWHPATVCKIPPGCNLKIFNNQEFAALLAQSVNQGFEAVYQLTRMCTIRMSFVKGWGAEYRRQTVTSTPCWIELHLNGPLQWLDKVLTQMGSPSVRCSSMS

Row | SMILES | EC50 [2] [nM] | inhibition [4] | GI50 (Hep 3B2 [1]) [nM] | Activity (Hep 3B2 [3]) | Activity (Hep 3B2 [5]) | Activity (Hep 3B2 [6]) | Activity (Hep 3B2 [7])
1 | O=S(=O)(Nc1ccc(Cl)cn1)c1c[nH]c2ncccc12 | 214 |  | 2860 |  |  |  | 
2 | Cc1nc(NS(=O)(=O)c2c[nH]c3ncccc23)ccc1Cl | 160 | Dose-dependent-effect | 2280 | Active; Compound Showed Moderate Activity | Active | Active | 
3 | CNC(=O)c1cc(Oc2ccc(NC(=O)Nc3ccc(Cl)c(C(F)(F)F)c3)cc2)ccn1 |  |  |  |  |  |  | Active

More lines, in order of falling EC50 [2], values ahead:

Row | EC50 [2] [nM] | inhibition [4] | SMILES | GI50 (Hep 3B2 [1]) [nM] | Activity (Hep 3B2 [3]) | Activity (Hep 3B2 [5]) | Activity (Hep 3B2 [6]) | Activity (Hep 3B2 [7])
4 | 534 |  | COc1ccc(NS(=O)(=O)c2c[nH]c3ncccc23)cc1 | 5710 |  |  |  | 
5 | 47.7 | Dose-dependent-effect | Cc1cccc(-c2nn3c(c2-c2ccnc4ccc(C(N)=O)cc24)CCC3)n1 [GALUNISERTIB] | 1070 |  |  |  | 
